Molecular target: acetylcholinesterase (AChE) (Electrophorus electricus, UniProt O42275)
Test: Ellman's assay with AChE isolated from Electrophorus electricus
Assay type: biochemical

Chain of acetylcholinesterase (AChE) (O42275 24-633): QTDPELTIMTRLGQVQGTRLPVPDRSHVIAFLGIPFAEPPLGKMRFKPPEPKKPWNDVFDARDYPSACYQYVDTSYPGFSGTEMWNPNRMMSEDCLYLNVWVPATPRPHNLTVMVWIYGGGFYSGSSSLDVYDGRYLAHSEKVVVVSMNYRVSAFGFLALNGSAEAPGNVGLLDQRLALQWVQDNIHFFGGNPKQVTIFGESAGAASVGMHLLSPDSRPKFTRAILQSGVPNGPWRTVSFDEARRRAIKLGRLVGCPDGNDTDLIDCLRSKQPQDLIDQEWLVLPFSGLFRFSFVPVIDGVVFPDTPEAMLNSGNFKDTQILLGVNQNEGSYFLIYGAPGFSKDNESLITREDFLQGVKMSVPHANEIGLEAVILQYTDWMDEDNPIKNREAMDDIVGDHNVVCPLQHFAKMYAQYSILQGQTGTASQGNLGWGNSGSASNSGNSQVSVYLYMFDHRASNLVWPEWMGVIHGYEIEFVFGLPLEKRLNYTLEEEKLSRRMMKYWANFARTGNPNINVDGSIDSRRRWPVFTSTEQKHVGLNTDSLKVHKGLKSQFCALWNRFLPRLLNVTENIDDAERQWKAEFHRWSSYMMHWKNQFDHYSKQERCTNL

C[C@@H]1CC(=O)O[C@H]2C[C@@]3(C)[C@@H]4CC[C@H]5C(C)(C)C(=O)CC[C@@]56C[C@@]46CC[C@]3(C)[C@@H]12 [compound 6]
IC50: 53.5 ± 2.53 µM

Reference: paper PMC12435401 (Chemistry & Biodiversity, 2025)
